Laboratory results reported in the NIST ThermoML archive (doi:10.1021/acs.jced.5b00820).

Assay: refractive index (Na D-line) (dimensionless); xn = mol fraction of the nth substance listed
Details: 102.2 kPa, Liquid, Standard Abbe refractometry

C[Si](C)(O[Si](C)(C)c1ccccc1)c1ccccc1 [1,3-diphenyltetramethyldisiloxane] + C[Si]1(C)O[Si](C)(C)O[Si](C)(C)O[Si](C)(C)O1
refractive index
Details | 308.15 K | 313.15 K | 318.15 K | 323.15 K | 328.15 K
x1 = 0.05 | 1.3951 | 1.39261 | 1.3901 | 1.38762 | 1.38512
x1 = 0.0999 | 1.40098 | 1.39849 | 1.39602 | 1.39357 | 1.39102
x1 = 0.1503 | 1.40694 | 1.40447 | 1.40199 | 1.39957 | 1.39707
x1 = 0.2005 | 1.41292 | 1.41044 | 1.40799 | 1.40557 | 1.40311
x1 = 0.2507 | 1.41891 | 1.41644 | 1.41401 | 1.41159 | 1.40913
x1 = 0.2963 | 1.42436 | 1.42193 | 1.41951 | 1.41708 | 1.41464
x1 = 0.3509 | 1.43091 | 1.42847 | 1.42607 | 1.42366 | 1.42126
x1 = 0.4001 | 1.43683 | 1.4344 | 1.43201 | 1.42964 | 1.42721
x1 = 0.4471 | 1.44251 | 1.44009 | 1.4377 | 1.4353 | 1.4329
x1 = 0.4968 | 1.44855 | 1.44616 | 1.44376 | 1.44142 | 1.43901
x1 = 0.5512 | 1.45518 | 1.45281 | 1.45043 | 1.44806 | 1.44571
x1 = 0.6003 | 1.46117 | 1.45878 | 1.45644 | 1.45407 | 1.45173
x1 = 0.6502 | 1.46727 | 1.46493 | 1.46256 | 1.46023 | 1.45785
x1 = 0.7001 | 1.47342 | 1.47107 | 1.46872 | 1.46638 | 1.46407
x1 = 0.7497 | 1.47954 | 1.47718 | 1.47488 | 1.47255 | 1.47021
x1 = 0.8 | 1.48577 | 1.48342 | 1.48109 | 1.47882 | 1.47646
x1 = 0.85 | 1.49197 | 1.48966 | 1.48733 | 1.48504 | 1.48273
x1 = 0.896 | 1.49768 | 1.49532 | 1.49303 | 1.49072 | 1.48841
x1 = 0.9497 | 1.50436 | 1.50202 | 1.49976 | 1.49748 | 1.49518
x1 = 1 | 1.51064 | 1.50832 | 1.50605 | 1.50377 | 1.50144

C[Si](C)(O[Si](C)(C)c1ccccc1)c1ccccc1 [1,3-diphenyltetramethyldisiloxane] + C[Si]1(CCC(F)(F)F)O[Si](C)(CCC(F)(F)F)O[Si](C)(CCC(F)(F)F)O1
refractive index
Details | 308.15 K | 313.15 K | 318.15 K | 323.15 K | 328.15 K
x1 = 0.0501 | 1.36577 | 1.36376 | 1.36177 | 1.35973 | 1.3577
x1 = 0.1001 | 1.37152 | 1.36949 | 1.36745 | 1.36544 | 1.36339
x1 = 0.1499 | 1.37745 | 1.37541 | 1.37337 | 1.37133 | 1.36931
x1 = 0.2005 | 1.38359 | 1.38155 | 1.3795 | 1.37746 | 1.37541
x1 = 0.2497 | 1.38975 | 1.38769 | 1.38565 | 1.38355 | 1.38148
x1 = 0.3 | 1.39624 | 1.39416 | 1.39207 | 1.39 | 1.38792
x1 = 0.3431 | 1.40191 | 1.39984 | 1.39775 | 1.39565 | 1.3936
x1 = 0.4001 | 1.40958 | 1.40754 | 1.40546 | 1.40337 | 1.40125
x1 = 0.45 | 1.41665 | 1.41456 | 1.41246 | 1.41033 | 1.40824
x1 = 0.4998 | 1.42386 | 1.42173 | 1.41969 | 1.4175 | 1.41538
x1 = 0.5482 | 1.43101 | 1.42892 | 1.42678 | 1.42465 | 1.42246
x1 = 0.5996 | 1.43889 | 1.43676 | 1.43456 | 1.43246 | 1.43032
x1 = 0.6501 | 1.44686 | 1.44469 | 1.44253 | 1.44035 | 1.43816
x1 = 0.7 | 1.45499 | 1.45282 | 1.45064 | 1.44846 | 1.44627
x1 = 0.75 | 1.4634 | 1.4612 | 1.459 | 1.45683 | 1.4546
x1 = 0.8001 | 1.4721 | 1.46989 | 1.46772 | 1.4655 | 1.46326
x1 = 0.8499 | 1.48104 | 1.47886 | 1.47659 | 1.47441 | 1.47215
x1 = 0.8998 | 1.49033 | 1.48806 | 1.48584 | 1.48362 | 1.48135
x1 = 0.95 | 1.5001 | 1.49782 | 1.49555 | 1.49332 | 1.49106
x1 = 1 | 1.51009 | 1.50782 | 1.50561 | 1.50332 | 1.501
